Data reported in patent publication US20250051762A1, “PLATFORM USING DNA-ENCODED SMALL MOLECULE LIBRARIES AND RNA SELECTION TO DESIGN SMALL MOLECULES THAT TARGET RNA” (University of Florida Research Foundation, Incorporated, priority 2021, published 2025).

Key:
[1] = target: 5′GAG/3′CCC loop at pri-miR-27a's Drosha site; experiment: Binding affinity by microscale thermophoresis (MST), Cy5-labeled RNA; set-up: species or system human
Experimental: Binding affinity measurements: Binding affinities were measured by microscale thermophoresis (MST), performed on a Monolith NT.115 system (NanoTemper Technologies) with Cy5-labeled RNAs. These RNAs include: the 5′GAG/3′CCC SEQ ID NO: 16 loop at pri-miR-27a's Drosha site (Sequence:/5′-Cy5/rCrUrGrArGrGrUrGrArArArCrArUrCrCrCrArG SEQ ID NO: 17; Dharmacon), a related internal loop not selected by 9. 5′CAG/3′GCC SEQ ID NO: 17 loop (Sequence:/5′-Cy5/rCrUrCrArGrGrUrGrArArArCrArUrCrCrGrArG SEQ ID NO: 16; Dharmacon), and an RNA in which the loop is mutated to a base pair (Sequence:/5-Cy5/rCrUrGrArGrGrUrGrArArArCrArUrCrUrCrArG SEQ ID NO: 16; Dharmacon).
Briefly, Cy5-labeled RNA (10 nM) was prepared in 1× Binding Buffer and folded by heating at 60° C. for 5 min and then slowly cooling to room temperature. After cooling, Tween-20 was added to a final concentration of 0.1% (v/v). Compound solutions were prepared separately in 20 μL of 1× Binding Buffer at a final concentration of 5 μM (1% (v/v) DMSO), followed by 1:1 serial dilutions in 1× Binding Buffer. RNA and compound solutions were then mixed 1:1 by volume to a total of 20 μL.
Samples were incubated for 20 min at room temperature and then loaded into premium capillaries (NanoTemper Tech, Cat #MO-K025). The following parameters were used for MST measurements: 5-20% LED power (adjusted to keep fluorescence intensity between 2000 and 8000), 80% MST power, Laser-On time=30 s, Laser-Off time=25 s. The resulting data were analyzed by calculating the change in thermophoresis as a function of compound concentration and fitted by Equation 1, a one site binding model, in NanoTemper Tech's MST analysis software to yield the dissociation constant (Kd):
(§1) Where F is the concentration of fluorescently labeled RNA; unbound and bound refer to the thermophoresis signal at completely unbound and bound state of RNA, respectively; c is the concentration of the compound; f (c) is the thermophoresis signal at compound concentration of c; and Kd is the dissociation constant.

mutant pri-miR-27a = experiment: Competitive MST binding assay with unlabeled mutated pri-miR-27a; set-up: species or system human; settings: two 5′GAG/3′CCC loops mutated to base pairs
Experimental: To measure the affinity of 9 for the 5′GAG/3′CCC loop in the context of pri-miR-27a, a competitive binding assay was used with a constant concentration of compound (100 nM) and the Cy5-labeled model of pri-miR-27a's Drosha site, and varying concentrations of unlabeled miR-27a precursor as reported by miRBase. (35) That is, the miR-27a precursor competes with the Cy5-labeled model of pri-miR-27a's Drosha site for binding 9. […] Thus, the compounds identified by using DEL-2DCS can bind avidly to biologically relevant RNA targets identified by Inforna.
For competitive binding assays, both WT and mutant pri-miR-27a RNAs were transcribed as previously described (see Table S6 for sequences). (11) The RNA was purified by gel electrophoresis and folded in 1× Binding Buffer at final concentration of 750 nM by heating at 60° C. for 5 min and then slowly cooling to room temperature. […] The resulting data were analyzed by SigmaPlot and fitted by Equation 2 to yield the competitive dissociation constant (Kd competitive).
as §1, with “where” for “Where”, “fluorescence-labeled” for “fluorescently labeled”, “refers” for “refer”, “c;” for “c; and”, “constant. […]” for “constant.”

For `C#CCN(CC(N)=O)C(=O)C[C@H](Cc1c[nH]c2ccccc12)NC(=O)[C@@H]1C[C@H](NC(=O)Cn2c(=O)[nH]c3ccccc3c2=O)CN1` [Compound 9], the Kd [1] was 0.09 ± 0.02 µM and the “binding (competitive)” value (mutant pri-miR-27a) was “binding was abolished”.
